Experimental data: patent US20250171744A1, “METHODS OF REPROGRAMMING SOMATIC CELLS AND MATERIALS RELATED THERETO” (CITY OF HOPE, priority 2019, published 2025)

Tests used:
[1] = tested on: human dermal fibroblast (HDF) cells; assay: Cell proliferation under prolonged MTX/PTX application, with or without HT (FIG. 16); format: cell-based; settings: controlled application, 5% dialyzed-FBS DMEM, 1 μM MTX for 7-days
Method: (§1) The cells were grown in 5% dialyzed-FBS DMEM medium. 293T cells were treated with 500 nM MTX, and HF57 cells and HDF cells were treated with 1 μM MTX for 7-days. Because inhibition of DHFR and TS by folate antagonists (MTX, PTX) results in a deficiency in the cellular pools of thymidylate and purines and thus a decrease in nucleic acid synthesis, sodium hypoxanthine (10 mM) and thymidine (1.6 mM) were added to the medium to overcome the effects of MTX and PTX. […] The cells were harvested for DNA/RNA isolation and analyzed for gene expression and DNA methylation.

[2] = tested on: human fibroblast cells (HF57); assay: as above; format: cell-based; settings: controlled application, 5% dialyzed-FBS DMEM, 1 μM MTX for 7-days
Method: as §1

[3] = tested on: HF57 cells; assay: Global DNA methylation, 5mC ELISA (FIG. 18); format: cell-based, human; settings: 7-days; vs untreated cells
Method: Equal amount of DNA (100 ng) was analyzed with 5mC enzyme-linked immunosorbent assay (ELISA) (EpiGentek). […] Error bars represent the standard error for at least three independent experiments and three technical replicates.
Global DNA methylation measurement Global 5-methylcytosine (5-mC) levels were quantified using the MethylFlash Methylated DNA Quantification Kits (Epigentek, Farmingdale, NY, USA). The DNA concentration was determined using the Qubit Assay (Thermo Fisher Scientific) according to the manufacturer's protocol. Briefly, 100 ng of DNA was used for incubation with both capture and detection antibodies using MethylFlash Methylated DNA Quantification Kit (Colorimetric) from Epigentek. Subsequently, measurements of the absorbance of the sample at 450 nm in a microplate spectrophotometer (BioTek Instruments, Winooski, VT, USA) were performed with the percentage of the whole genome 5-mC calculation according to manufacturer's instructions. Genomic methylation levels in study samples were expressed as percentage of 5-mC.

[4] = tested on: HF57 cells; assay: Transcriptomics (RNAseq) of MTX and PTX treated cells (FIG. 20); format: cell-based, human; settings: for pluripotency markers significantly enriched: compared to controls
Description: RNAseq data validated that application of MTX and PTX affected C1 metabolism in the treated cells. […] The global transcriptional change across the groups compared was visualized by a volcano plot (FIGS. 20A-20B). Each data point in the scatter plot represents a gene. The log 2 fold change of each gene is represented on the x-axis and the log 10 of its adjusted p-value is on the y-axis. Genes with an adjusted p-value less than 0.05 and a log 2 fold change greater than 1 are indicated by red dots. […] Genes with an adjusted p-value less than 0.05 and a log 2 fold change less than −1 are indicated by green dots. […] Heat map visualization of the selected 67 differentially expressed genes. Original values are ln(x)-transformed. Rows are centered; unit variance scaling is applied to rows. Red indicates higher expression, whereas low expression indicated in green (FIG. 20C). For visual clarity, expression of selected genes is presented in groups based on their relative values (FIG. 20D).
The quiescent nature of the MTX and PTX cells and the association of demethylation with the generation of induced pluripotent stem cells led to examining markers for stem cells formation. The 293T and HF57 cells were grown on 5% dialyzed FBS DMEM medium. DMEM without methionine, DMEM with 15 mg/L (half dose) and DMEM with 30 mg/L (regular DMEM) were used to grow the cells. Once the cells attained 70% confluency, HF57 were treated with 1-μM MTX or PTX and HEK293T were treated with 500 nM MTX or 1 μM PTX. The cells were treated with MTX or PTX for 7-days, and subsequently the medium was replaced with N2B27 medium (Thermo Fisher Scientific, USA). The cells were grown in N2B27 medium for 15 days which supported undifferentiated growth of human embryonic stem cells. Subsequently, these cells were maintained in MTeSR medium supplemented with sodium hypoxanthine and thymidine (HT) for 15 or more days. These conditions supported prolonged self-renewal of putative pluripotent cells, and they were able to form colonies and later embryoid bodies in vitro. Subsequently, the cells were assessed for markers linked to stem cells. Transcriptomics and qRT-PCR were performed to examine whether ES cell marker genes were expressed in these cells. Both MTX and PTX treated cells expressed the marker genes (FIGS. 20-21 and 25-26). […] To authenticate these findings, two key pluripotency markers (SSEA-4 and TRA 1-60) were examined using immunofluorescence.

[5] = tested on: 293T cells; assay: Embryoid body formation from SSEA4 positive sorted cells (FIG. 27); format: cell-based, human
Method: HEK293T and HF57 were treated with MTX and PTX for 7 or more days in low methionine condition. SSEA4 positive cells were sorted using cell sorter and maintained on mTeSR™ Plus medium supplemented with HT.
293T cells were treated with MTX and/or PTX for 10 or more days. SSEA4 positive cells were sorted using single cell sorter and maintained on mTeSR1 medium. […] FIGS. 28-29 show the three-germ layer immunostaining of putative pluripotent stem cells derived from 293T cells treated with MTX and PTX.

[6] = tested on: MTX/PTX treated and SSEA4 positive cells; assay: Cardiomyocyte marker expression in cardiomyocytes differentiation medium (FIG. 31); format: cell-based, human
Method: MTX/PTX treated and SSEA4 positive cells were maintained on Matrigel-coated 6-well plates in mTeSR1 medium. To induce differentiation, cells with EB-like morphology were dissociated with Accutase (Invitrogen) at 37° C. for 5 minutes and then single cell suspension was seeded onto a Matrigel-coated cell-culture dish at 100,000 cell/cm^2 in mTeSR1 supplemented with 5 μM ROCK inhibitor (Y-27632) for 24 hours. The cells then were cultured in mTeSR1 medium, which was changed daily. Next, 8 μl of 36 mM CHIR99021 were added into 24 ml RPMI/B27-insulin medium to make 12 μM CHIR99021 RPMI/B27-insulin medium and 2-ml of this were added to each well after the old mTeSR1 medium was removed. Exactly 24 hours after adding CHIR, the medium was replaced with 2 ml room temperature RPMI/B27-insulin. The plate was put back into the 37° C., 5% CO2 incubator. 72 hours post addition of CHIR99021, 1 ml medium from each well was removed and the remaining 1-ml was supplemented with 1-ml RPMI/B27-insulin with 5 μM IWP2 (WNT pathway inhibitor). After 48 hours, the medium was replaced with fresh RPMI/B27-insulin and this was incubated at 37° C., 5% CO2 incubator. After this, every 2-days, the old medium was removed from each well of the 12-well plate and 2 ml/well room temperature RPMI/B27 medium was added and incubated at 37° C., 5% CO2. Spontaneous contraction should occur by day 14 and spontaneous beating can be maintained for several weeks. […] The expression of the key cardiomyocyte markers, Nkx2, which is an early cardiac transcriptional factor, indicative of cardiac progenitor phenotype, and cTNT, which is cardiac troponin T, a muscle contractility regulatory protein, indicative of a mature cardiac phenotype, were tested.

[7] = treated 7 or more days, low methionine, mTeSR Plus + HT, after 15-days
[8] = treated 10 or more days, mTeSR1 medium, after 10-days

Row | SMILES | cell proliferation [1] | cell proliferation [2] | global DNA methylation (5mC content) [3] | LIN28A enrichment compared to controls [4] [fold] | NANOG enrichment compared to controls [4] [fold] | SOX2 enrichment compared to controls [4] [fold] | one carbon-metabolism and DNA methylation related genes significantly down-regulated [4] | one carbon-metabolism and DNA methylation related genes upregulated [4] [genes] | pluripotency markers significantly enriched [4] | embryoid body formation [5, 7] | embryoid body formation [5, 8] | expression of Nkx2 [6] | expression of cTNT [6]
1 | CN(Cc1cnc2nc(N)nc(N)c2n1)c1ccc(C(=O)N[C@@H](CCC(=O)O)C(=O)O)cc1 [MTX, methotrexate] | reduced cell proliferation | reduced cell proliferation | significant reduction in global DNA methylation | 6 | 6 | 5 | about 41 genes | 9 | about 50 | formed embryoid bodies | started forming embryoid bodies | significantly up-regulated | significantly up-regulated
2 | Nc1nc2[nH]cc(CCc3ccc(C(=O)N[C@@H](CCC(=O)O)C(=O)O)cc3)c2c(=O)[nH]1 [PTX, pemetrexed] | reduced cell proliferation | reduced cell proliferation | significant reduction in global DNA methylation | 6 | 6 | 5 | about 41 genes | 9 | about 50 | formed embryoid bodies | started forming embryoid bodies | significantly up-regulated | significantly up-regulated
